Laboratory results published in patent US12122761B2, “2-azaspiro[3.4]octane derivatives as M4 agonists” (NOVARTIS AG, priority 2019, dated 2024).

Molecular target: T1, human cloned CHRM2 receptor (M2_CHO cells) (Homo sapiens, UniProt P08172)
T1 construct: expressed in transfected cells; host or cells: CHO-K1
T1 sequence (P08172 1-466): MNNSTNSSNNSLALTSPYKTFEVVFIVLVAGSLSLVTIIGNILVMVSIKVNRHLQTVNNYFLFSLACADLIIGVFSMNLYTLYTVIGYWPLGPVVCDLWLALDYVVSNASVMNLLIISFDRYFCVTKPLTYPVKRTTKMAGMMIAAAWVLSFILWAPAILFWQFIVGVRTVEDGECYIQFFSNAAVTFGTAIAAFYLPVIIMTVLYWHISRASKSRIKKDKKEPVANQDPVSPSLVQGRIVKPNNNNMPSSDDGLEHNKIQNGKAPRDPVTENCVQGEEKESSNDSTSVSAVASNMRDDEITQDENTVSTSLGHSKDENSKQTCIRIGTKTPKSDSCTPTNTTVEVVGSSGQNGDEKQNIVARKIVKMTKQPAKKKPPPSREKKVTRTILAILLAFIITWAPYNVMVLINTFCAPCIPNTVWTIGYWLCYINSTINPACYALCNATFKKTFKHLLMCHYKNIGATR
Test: CHRM2 Ca++ Flux Assay (agonist mode, FDSS 7000EX)
Type: cell-based
Details: for M2 FDSS PA: Percent Activity measured to EC100 of Carbachol; for EC50: agonist mode, geometric mean if tested more than once, read-out: M2 FDSS EC50
Experimental: The above examples were characterized by measuring the intracellular mobilization of Ca++ ions caused by signaling events mediated by the receptor. The Intra-cellular Calcium flux levels were captured by the highly sensitive Ca++ indicator, Calcium Assay Kit (BD Biosciences, Catalog Number 640178). The fluorescent activity from all receptors were monitored by the fluorescent imager, FDSS 7000EX (Hamamatsu) over a span of 3 minutes.
CHO-K1 cells stably expressing the human cloned CHRM2 receptor (M2_CHO cells) were grown and maintained in a monolayer culture with F12/HAM (Life Technologies) supplemented with 10% Fetal Bovine Serum, 1× Pen-Strep, and 0.4 mg/mL Geneticin in a humidified atmosphere (5% CO2) at 37° C. The cultures were grown to 80-9 0% confluency in T150 flasks (Corning) and washed with 1×DPBS and lifted with 0.05% Trypsin (Life Technologies). The cells were then spun (1K rpm, 3 minutes) and frozen using Recovery Cell Culture Freezing Media (Gibco Technologies). Cells were stored in liquid nitrogen and thawed a day before the assay.
Prior to the day of the assay, stable M2 CHO cells were thawed and plated on Greiner 384 well TC treated plate at a density of 12K cells/well and kept overnight in a humidified atmosphere (5% CO2) at 37° C. The following day, the cells were loaded with Ca^++ dye (BD Biosciences) using Loading Buffer (HBSS +Ca/+Mg, 20 mM HEPES, 2.5 mM Probenecid) and placed back in cell incubator for a minimum of 1 hour and maximum of 2 hours. After incubation, the dye was replaced with Assay Buffer (HBSS −Ca/−Mg, 20 mM HEPES, 2.5 mM Probenecid) supplemented with 20 μM ATP (Sigma Aldrich) and kept at room temperature for 60 minutes prior before running on cell imager. The FDSS 7000EX (Hamamatsu) was used to acquire Ca^++ traces from cells in response to compound treatment and the data was used to generate dose response curves in agonist mode. All compounds were serially diluted in DMSO then prepared in Assay Buffer for Ca^++ flux studies. The dose response curves were generated from the average of triplicate wells obtained from each data point and used a non-linear regression of four parameter dose response algorithm. The Percent Activity (PA) was measured to EC100 of Carbachol.

| Structure (SMILES) | M2 FDSS PA [%] | EC50 [nM] |
| --- | --- | --- |
| O=C(N1CC2(CC[C@@H](N3CCC(c4ccccc4OC4CCOCC4)CC3)C2)C1)C1(F)CC1 (single isomer, unassigned) [Example 9E, (R)-(1-fluorocyclopropyl)(6-(4-(2-((tetrahydro-2H-pyran-4-yl)oxy)phenyl)piperidin-1-yl)-2-azaspiro[3.4]octan-2-yl)methanone or (S)-(1-fluorocyclopropyl)(6-(4-(2-((tetrahydro-2H-pyran-4-yl)oxy)phenyl)piperidin-1-yl)-2-azaspiro[3.4]octan-2-yl)methanone] | 0 |  |
| O=C(N1CC2(CC[C@@H](N3CCC(c4ccccc4OC4CCOCC4)CC3)C2)C1)C1(F)CC1 (single isomer, unassigned) [Example 9F, (R)-(1-fluorocyclopropyl)(6-(4-(2-((tetrahydro-2H-pyran-4-yl)oxy)phenyl)piperidin-1-yl)-2-azaspiro[3.4]octan-2-yl)methanone or (S)-(1-fluorocyclopropyl)(6-(4-(2-((tetrahydro-2H-pyran-4-yl)oxy)phenyl)piperidin-1-yl)-2-azaspiro[3.4]octan-2-yl)methanone] | 0 |  |
| O=C(N1CC2(CC[C@@H](N3CCC(c4ccccc4C4(O)CCOCC4)CC3)C2)C1)C1(F)CC1 (single isomer, unassigned) [Example 9G, (R)-(1-fluorocyclopropyl)(6-(4-(2-(4-hydroxytetrahydro-2H-pyran-4-yl)phenyl)piperidin-1-yl)-2-azaspiro[3.4]octan-2-yl)methanone or (S)-(1-fluorocyclopropyl)(6-(4-(2-(4-hydroxytetrahydro-2H-pyran-4-yl)phenyl)piperidin-1-yl)-2-azaspiro[3.4]octan-2-yl)methanone] | 0 |  |
| O=C(N1CC2(CC[C@@H](N3CCC(c4ccccc4C4(O)CCOCC4)CC3)C2)C1)C1(F)CC1 (single isomer, unassigned) [Example 9H, (R)-(1-fluorocyclopropyl)(6-(4-(2-(4-hydroxytetrahydro-2H-pyran-4-yl)phenyl)piperidin-1-yl)-2-azaspiro[3.4]octan-2-yl)methanone or (S)-(1-fluorocyclopropyl)(6-(4-(2-(4-hydroxytetrahydro-2H-pyran-4-yl)phenyl)piperidin-1-yl)-2-azaspiro[3.4]octan-2-yl)methanone] | 0 |  |
| O=C(N1CC2(CC[C@@H](N3CCC(c4cc(F)ccc4C4(O)CCOCC4)CC3)C2)C1)C1(F)CC1 (single isomer, unassigned) [Example 9I, (R)-(6-(4-(5-fluoro-2-(4-hydroxytetrahydro-2H-pyran-4-yl)phenyl)piperidin-1-yl)-2-azaspiro[3.4]octan-2-yl)(1-fluorocyclopropyl)methanone or (S)-(6-(4-(5-fluoro-2-(4-hydroxytetrahydro-2H-pyran-4-yl)phenyl)piperidin-1-yl)-2-azaspiro[3.4]octan-2-yl)(1-fluorocyclopropyl)methanone] | 0 |  |
| O=C(N1CC2(CC[C@@H](N3CCC(c4cc(F)ccc4C4(O)CCOCC4)CC3)C2)C1)C1(F)CC1 (single isomer, unassigned) [Example 9J, (R)-(6-(4-(5-fluoro-2-(4-hydroxytetrahydro-2H-pyran-4-yl)phenyl)piperidin-1-yl)-2-azaspiro[3.4]octan-2-yl)(1-fluorocyclopropyl)methanone or (S)-(6-(4-(5-fluoro-2-(4-hydroxytetrahydro-2H-pyran-4-yl)phenyl)piperidin-1-yl)-2-azaspiro[3.4]octan-2-yl)(1-fluorocyclopropyl)methanone] | 0 |  |
| O=C(N1CC2(CC[C@@H](N3CCC(c4cc(F)ccc4C4CCOCC4)CC3)C2)C1)C1(F)CC1 (single isomer, unassigned) [Example 9K, (R)-(6-(4-(5-fluoro-2-(tetrahydro-2H-pyran-4-yl)phenyl)piperidin-1-yl)-2-azaspiro[3.4]octan-2-yl)(1-fluorocyclopropyl)methanone or (S)-(6-(4-(5-fluoro-2-(tetrahydro-2H-pyran-4-yl)phenyl)piperidin-1-yl)-2-azaspiro[3.4]octan-2-yl)(1-fluorocyclopropyl)methanone] | 0 |  |
| O=C(N1CC2(CC[C@@H](N3CCC(c4cc(F)ccc4C4CCOCC4)CC3)C2)C1)C1(F)CC1 (single isomer, unassigned) [Example 9L, (R)-(6-(4-(5-fluoro-2-(tetrahydro-2H-pyran-4-yl)phenyl)piperidin-1-yl)-2-azaspiro[3.4]octan-2-yl)(1-fluorocyclopropyl)methanone or (S)-(6-(4-(5-fluoro-2-(tetrahydro-2H-pyran-4-yl)phenyl)piperidin-1-yl)-2-azaspiro[3.4]octan-2-yl)(1-fluorocyclopropyl)methanone] | 0 |  |
| Fc1cncc(N2CC3(CC[C@@H](N4CCC(c5cc(F)ccc5OC5CCOCC5)CC4)C3)C2)c1 (single isomer, unassigned) [Example 10A, (R)-6-(4-(5-fluoro-2-((tetrahydro-2H-pyran-4-yl)oxy)phenyl)piperidin-1-yl)-2-(5-fluoropyridin-3-yl)-2-azaspiro[3.4]octane or (S)-6-(4-(5-fluoro-2-((tetrahydro-2H-pyran-4-yl)oxy)phenyl)piperidin-1-yl)-2-(5-fluoropyridin-3-yl)-2-azaspiro[3.4]octane] | 42 |  |
| Fc1cncc(N2CC3(CC[C@@H](N4CCC(c5cc(F)ccc5OC5CCOCC5)CC4)C3)C2)c1 (single isomer, unassigned) [Example 10B, (R)-6-(4-(5-fluoro-2-((tetrahydro-2H-pyran-4-yl)oxy)phenyl)piperidin-1-yl)-2-(5-fluoropyridin-3-yl)-2-azaspiro[3.4]octane or (S)-6-(4-(5-fluoro-2-((tetrahydro-2H-pyran-4-yl)oxy)phenyl)piperidin-1-yl)-2-(5-fluoropyridin-3-yl)-2-azaspiro[3.4]octane] | 31 | 14400 |
| Fc1ccc(C2CCOCC2)c(C2CCN([C@@H]3CCC4(C3)CN(c3cncnc3)C4)CC2)c1 (single isomer, unassigned) [Example 10C, (R)-6-(4-(5-fluoro-2-(tetrahydro-2H-pyran-4-yl)phenyl)piperidin-1-yl)-2-(pyrimidin-5-yl)-2-azaspiro[3.4]octane or (S)-6-(4-(5-fluoro-2-(tetrahydro-2H-pyran-4-yl)phenyl)piperidin-1-yl)-2-(pyrimidin-5-yl)-2-azaspiro[3.4]octane] | 30 | 35 |
| Fc1ccc(C2CCOCC2)c(C2CCN([C@@H]3CCC4(C3)CN(c3cncnc3)C4)CC2)c1 (single isomer, unassigned) [Example 10D, (R)-6-(4-(5-fluoro-2-(tetrahydro-2H-pyran-4-yl)phenyl)piperidin-1-yl)-2-(pyrimidin-5-yl)-2-azaspiro[3.4]octane or (S)-6-(4-(5-fluoro-2-(tetrahydro-2H-pyran-4-yl)phenyl)piperidin-1-yl)-2-(pyrimidin-5-yl)-2-azaspiro[3.4]octane] | 11 | 506 |
| Fc1ccc(OC2CC3(COC3)C2)c(C2CCN([C@@H]3CCC4(C3)CN(c3cncnc3)C4)CC2)c1 (single isomer, unassigned) [Example 10E, (R)-6-(4-(2-((2-oxaspiro[3.3]heptan-6-yl)oxy)-5-fluorophenyl)piperidin-1-yl)-2-(pyrimidin-5-yl)-2-azaspiro[3.4]octane or (S)-6-(4-(2-((2-oxaspiro[3.3]heptan-6-yl)oxy)-5-fluorophenyl)piperidin-1-yl)-2-(pyrimidin-5-yl)-2-azaspiro[3.4]octane] | 11 | 3990 |
